Assay results from paper PMC9154192 (PLoS Biology, 2022).
In brackets after ≈: the same amount, converted by molar mass. Several values for one entry are separate records, joined by “and”; a condition that tells them apart may be missing. Equal values may be shown once. Read-outs that look alike come from different tables or passages of the source.

What was measured:
M. bovis BCG strains = assay: organism not typed; type: cell-based, Mycobacterium bovis BCG
[1] = type: in vivo, female rats; design: unit not given here; conditions: for Plasma concentration, individual animals: female rats 1-6, single oral 100 mg/kg, 100 mg/kg; for Plasma concentration, Average: female rats, average of 6 animals
[2] = type: cell-based
[3] = for % MNPCE (Mean ± S.D.) / % PCE (Mean ± S.D.): 24 hours after dosing
Description: Genotoxicity studies for PP2S were performed according to the ICH (International conference on harmonization) harmonized tripartite guideline, S2(R1). Regarding previous reports, the bacterial reverse mutation test, chromosomal abnormality test, and mouse bone marrow micronucleus test were performed with slight modifications.

[4] = TA100, 4.88 μg/plate, absence of S9 mix
[5] = TA100, 4.88 μg/plate, presence of S9 mix
[6] = TA100, 78.1 μg/plate, absence of S9 mix
[7] = TA100, 78.1 μg/plate, presence of S9 mix
[8] = TA100, 313 μg/plate, absence of S9 mix
[9] = TA100, 313 μg/plate, presence of S9 mix
[10] = TA1535, 4.88 μg/plate, absence of S9 mix
[11] = TA1535, 4.88 μg/plate, presence of S9 mix
[12] = TA1535, 78.1 μg/plate, absence of S9 mix
[13] = TA1535, 78.1 μg/plate, presence of S9 mix
[14] = TA1535, 313 μg/plate, absence of S9 mix
[15] = TA1535, 313 μg/plate, presence of S9 mix
[16] = TA1537, 4.88 μg/plate, absence of S9 mix
[17] = TA1537, 4.88 μg/plate, presence of S9 mix
[18] = TA1537, 78.1 μg/plate, absence of S9 mix
[19] = TA1537, 78.1 μg/plate, presence of S9 mix
[20] = TA1537, 313 μg/plate, absence of S9 mix
[21] = TA1537, 313 μg/plate, presence of S9 mix
[22] = WP2uvrA (pKM101), 4.88 μg/plate, absence of S9 mix
[23] = WP2uvrA (pKM101), 4.88 μg/plate, presence of S9 mix
[24] = WP2uvrA (pKM101), 78.1 μg/plate, absence of S9 mix
[25] = WP2uvrA (pKM101), 78.1 μg/plate, presence of S9 mix
[26] = WP2uvrA (pKM101), 313 μg/plate, absence of S9 mix

NNC(=O)c1ccncc1 [INH, isoniazid, reference compound]
MIC (M. bovis BCG strains): 0.2 mg/L (≈ 1.46 µM)

CCCCOc1ccc2cc(CN3C(=O)CC[C@H]3C(=O)OC)c3cc(OC)c(OC)cc3c2c1 [PP2S, Methyl (S)-1-((3-butoxy-6,7-dimethoxyphenanthren-9-yl)methyl)-5-oxopyrrolidine-2-carboxylate]
Plasma concentration, individual animals ([1]; 2 h): 237.59 | Plasma concentration, individual animals ([1]; 4 h): 316.47 | Plasma concentration, individual animals ([1]; 6 h): 323.47 | Plasma concentration, individual animals ([1]; 8 h): 253.32 | Plasma concentration, individual animals ([1]; 10 h): 217.50 | Plasma concentration, individual animals ([1]; 12 h): 210.07 | Plasma concentration, individual animals ([1]; 14 h): 174.31 | Plasma concentration, individual animals ([1]; 16 h): 211.29 | Plasma concentration, individual animals ([1]; 18 h): 122.20 | Plasma concentration, individual animals ([1]; 20 h): 116.07 | Plasma concentration, individual animals ([1]; 22 h): 87.81 | Plasma concentration, individual animals ([1]; 24 h): 63.19 | Plasma concentration, Average ([1]; single oral 100 mg/kg, 2 h): 320.00 | Plasma concentration, Average ([1]; single oral 100 mg/kg, 4 h): 432.00 | Plasma concentration, Average ([1]; single oral 100 mg/kg, 6 h): 276.00 | Plasma concentration, Average ([1]; single oral 100 mg/kg, 8 h): 154.00 | Plasma concentration, Average ([1]; single oral 100 mg/kg, 10 h): 132.00 | Plasma concentration, Average ([1]; single oral 100 mg/kg, 12 h): 110.00 | Plasma concentration, Average ([1]; single oral 100 mg/kg, 14 h): 97.00 | Plasma concentration, Average ([1]; single oral 100 mg/kg, 16 h): 81.00 | Plasma concentration, Average ([1]; single oral 100 mg/kg, 18 h): 78.00 | Plasma concentration, Average ([1]; single oral 100 mg/kg, 20 h): 67.00 | Plasma concentration, Average ([1]; single oral 100 mg/kg, 22 h): 52.00 | Plasma concentration, Average ([1]; single oral 100 mg/kg, 24 h): 35.00 | Plasma concentration, Average ([1]; single oral 150 mg/kg, 18 h): 85.00 | Plasma concentration, Average ([1]; single oral 150 mg/kg, 20 h): 76.00 | Plasma concentration, Average ([1]; single oral 150 mg/kg, 22 h): 63.00 | Plasma concentration, Average ([1]; single oral 150 mg/kg, 24 h): 42.00 | Individual revertant colony counts [2, 4]: 77 colonies per plate and 71 colonies per plate | Mean revertant colonies [2, 4]: 74 colonies per plate | Individual revertant colony counts [2, 5]: 116 colonies per plate and 111 colonies per plate | Mean revertant colonies [2, 5]: 114 colonies per plate | Individual revertant colony counts [2, 6]: 78 colonies per plate and 85 colonies per plate | Mean revertant colonies [2, 6]: 82 colonies per plate | Individual revertant colony counts [2, 7]: 111 colonies per plate and 107 colonies per plate | Mean revertant colonies [2, 7]: 109 colonies per plate | Individual revertant colony counts [2, 8]: 98 colonies per plate and 95 colonies per plate | Mean revertant colonies [2, 8]: 97 colonies per plate | Individual revertant colony counts [2, 9]: 111 colonies per plate and 107 colonies per plate | Mean revertant colonies [2, 9]: 109 colonies per plate | Individual revertant colony counts [2, 10]: 18 colonies per plate and 19 colonies per plate | Mean revertant colonies [2, 10]: 19 colonies per plate | Individual revertant colony counts [2, 11]: 10 colonies per plate and 12 colonies per plate | Mean revertant colonies [2, 11]: 11 colonies per plate | Individual revertant colony counts [2, 12]: 18 colonies per plate and 19 colonies per plate | Mean revertant colonies [2, 12]: 19 colonies per plate | Individual revertant colony counts [2, 13]: 17 colonies per plate and 15 colonies per plate | Mean revertant colonies [2, 13]: 16 colonies per plate | Individual revertant colony counts [2, 14]: 15 colonies per plate and 17 colonies per plate | Mean revertant colonies [2, 14]: 16 colonies per plate | Individual revertant colony counts [2, 15]: 16 colonies per plate and 15 colonies per plate | Mean revertant colonies [2, 15]: 16 colonies per plate | Individual revertant colony counts [2, 16]: 10 colonies per plate and 11 colonies per plate | Mean revertant colonies [2, 16]: 11 colonies per plate | Individual revertant colony counts [2, 17]: 16 colonies per plate and 14 colonies per plate | Mean revertant colonies [2, 17]: 15 colonies per plate | Individual revertant colony counts [2, 18]: 11 colonies per plate and 10 colonies per plate | Mean revertant colonies [2, 18]: 11 colonies per plate | Individual revertant colony counts [2, 19]: 18 colonies per plate and 17 colonies per plate | Mean revertant colonies [2, 19]: 18 colonies per plate | Individual revertant colony counts [2, 20]: 9 colonies per plate and 8 colonies per plate | Mean revertant colonies [2, 20]: 9 colonies per plate | Individual revertant colony counts [2, 21]: 18 colonies per plate and 19 colonies per plate | Mean revertant colonies [2, 21]: 19 colonies per plate | Individual revertant colony counts [2, 22]: 92 colonies per plate and 86 colonies per plate | Mean revertant colonies [2, 22]: 89 colonies per plate | Individual revertant colony counts [2, 23]: 149 colonies per plate and 156 colonies per plate | Mean revertant colonies [2, 23]: 153 colonies per plate | Individual revertant colony counts [2, 24]: 87 colonies per plate and 94 colonies per plate | Mean revertant colonies [2, 24]: 91 colonies per plate | Individual revertant colony counts [2, 25]: 156 colonies per plate and 167 colonies per plate | Mean revertant colonies [2, 25]: 162 colonies per plate | Individual revertant colony counts [2, 26]: 91 colonies per plate and 93 colonies per plate | Mean revertant colonies [2, 26]: 92 colonies per plate | Individual revertant colony counts ([2]; WP2uvrA (pKM101), 313 μg/plate, presence of S9 mix): 162 colonies per plate and 165 colonies per plate | genotoxicity ([2]; bacterial reverse mutation test): did not show genotoxicity | Mean body weights ± S.D. ([3]; 500 mg/kg P.O., 0 day): 35.9 ± 1.16 g | Mean body weights ± S.D. ([3]; 500 mg/kg P.O., 1 day): 35.5 ± 1.48 g | % MNPCE (Mean ± S.D.) ([3]; 500 mg/kg P.O.): 0.055 ± 0.037% | % PCE (Mean ± S.D.) ([3]; 500 mg/kg P.O.): 30.5 ± 2.16% | Mean body weights ± S.D. ([3]; 1000 mg/kg P.O., 0 day): 35.9 ± 1.07 g | Mean body weights ± S.D. ([3]; 1000 mg/kg P.O., 1 day): 36.1 ± 1.42 g | % MNPCE (Mean ± S.D.) ([3]; 1000 mg/kg P.O.): 0.060 ± 0.034% | % PCE (Mean ± S.D.) ([3]; 1000 mg/kg P.O.): 31.8 ± 2.49% | Mean body weights ± S.D. ([3]; 2000 mg/kg P.O., 0 day): 35.9 ± 1.14 g | Mean body weights ± S.D. ([3]; 2000 mg/kg P.O., 1 day): 34.9 ± 1.63 g | % MNPCE (Mean ± S.D.) ([3]; 2000 mg/kg P.O.): 0.055 ± 0.021% | % PCE (Mean ± S.D.) ([3]; 2000 mg/kg P.O.): 33.6 ± 1.67% | RPD (relative population doubling) ([3]; S9 mix +, Trt-Rec 6-18 hr, 125 µg/mL): 69.4% | RPD (relative population doubling) ([3]; S9 mix +, Trt-Rec 6-18 hr, 250 µg/mL): 67.4% | RPD (relative population doubling) ([3]; S9 mix -, Trt-Rec 6-18 hr, 125 µg/mL): 78.8% | RPD (relative population doubling) ([3]; S9 mix -, Trt-Rec 6-18 hr, 250 µg/mL): 74.3% | RPD (relative population doubling) ([3]; S9 mix -, Trt-Rec 24-0 hr, 125 µg/mL): 46.9% | RPD (relative population doubling) ([3]; S9 mix -, Trt-Rec 24-0 hr, 250 µg/mL): 38.6% | genotoxicity ([3]; bone marrow micronucleus formation test): did not show genotoxicity
